Data: patent publication US12029724B2, “Method for inhibiting tumor growth” (Eisai R&D Management Co., Ltd., priority 2016, dated 2024)
Where a name gives a salt, the structure may show the parent alone.

How the values were obtained:
BXPC-3 pancreatic cancer = experiment: anti-tumor activity, BXPC-3 xenograft in nude mice; type: in vivo, human; details: BXPC-3 model, i.v. day 0 and day 7, start tumor volume 120 mm^3, log RTV, day 7-day 21
Description: (§1) Cancer cell lines were purchased from the Riken Bioresource Center (RBC, Japan (Ibaraki)), American Type Culture Collection (ATCC, USA (Manassas, Va.)), Deutsche Sammlung von Mikroorganismen and Zellkulturen GmbH (German Collection of Microorganisms and Cell Cultures GmbH: DSMZ, Germany (Braunschweig)), Health Science Research Resource Bank (HSRRB, Japan (Osaka)), and the DS Pharma Biomedical Co., Ltd. (DS-Pharma, Japan (Osaka)), and were kindly donated by the Kyushu Cancer Center, Kagoshima University, and the Cell Resource Center for Biomedical Research of the Institute of Development, Aging, and Cancer of Tohoku University.
(§2) In the tables, the cancer cell lines to which “*” is added in the “acclimation” column were obtained from grown tumors which were formed by subcutaneously inoculating each cancer cell line to a mouse in advance.
(§3) On the initial day of inoculation, the cancer cells were harvested by trypsinization and were washed and suspended using the particular medium. Some of the harvested cancer cells were then mixed with GelTrex (Gibco, #12760-021 or A14132-02) at 1:1. […]
(§4) The tumor size was measured over time with a caliper, and the tumor volume was determined based on the following calculation formula. tumor volume (mm^3)=length (mm)×square of width (mm^2)×½ […]

[1] = test system: OMC9 sarcoma (leiomyosarcoma); experiment: anti-tumor activity, OMC9 xenograft in nude mice; type: in vivo, human; details: OMC9 model, BALB/c nu/nu mice, i.v. day 0 and day 7, start tumor volume 150 mm^3, log RTV, day 7-day 35
Description: as §1, §2, §3, §4

KP-1 pancreatic cancer = experiment: anti-tumor activity, KP-1 xenograft in nude mice; type: in vivo, human; details: KP-1 model, i.v. day 0 and day 7, start tumor volume 200 mm^3, log RTV, day 3-day 14
Description: as §1, §2
as §3, with “1:1. Using a 26-gauge syringe needle, these cells were inoculated at a volume of 0.1 mL into the vicinity of the right axillary region of mice (BALB/c nu/nu).” for “1:1.”

[2] = test system: MFE-296 uterine cancer (endometrial cancer); experiment: anti-tumor activity, MFE-296 xenograft in nude mice; type: in vivo, human; details: MFE-296 model, i.v. day 0 and day 7, start tumor volume 200 mm^3, log RTV, day 4-day 14
Description: as §1, §2, §3, §4

AsPC-1 pancreatic cancer = experiment: anti-tumor activity, AsPC-1 xenograft in nude mice; type: in vivo, human; details: AsPC-1 model, i.v. day 0 and day 7, start tumor volume 380 mm^3, log RTV, day 3-day 35
Description: as §1, §2, §3, §4

[3] = test system: A673 sarcoma (Ewing sarcoma); experiment: anti-tumor activity, A673 xenograft in nude mice; type: in vivo, human; details: A673 model, i.v. day 0 and day 7, start tumor volume 220 mm^3, log RTV, day 4-day 18
Description: as §1, §2, §3, §4

[4] = test system: U251MG brain tumor (glioblastoma); experiment: anti-tumor activity, U251MG xenograft in nude mice; type: in vivo, human; details: U251MG model, i.v. day 0 and day 7, start tumor volume 150 mm^3, log RTV, day 5-day 23
Description: as §1, §2
as §3, with “1:1. Using a 26-gauge syringe needle, these cells were inoculated at a volume of 0.1 mL into the vicinity of the right axillary region of mice (BALB/c nu/nu).” for “1:1.”

human xenograft models = experiment: anti-tumor activity, summary over the 18 human xenograft models; type: in vivo; details: in all 18 human xenograft models, RM-ANOVA using log RTV, P<0.05
Description: as §1, §2, §3, §4

[5] = test system: SK-UT-1 sarcoma (leiomyosarcoma); experiment: anti-tumor activity, SK-UT-1 xenograft in nude mice; type: in vivo, human; details: day 3-day 10
Description: as §1, §2, §3, §4

[6] = test system: UM-UC-3 urothelial cancer (bladder cancer); experiment: anti-tumor activity, UM-UC-3 xenograft in nude mice; type: in vivo, human
Description: as §1, §2, §3, §4

[7] = test system: KB (HeLa) uterine cancer (cervical cancer); experiment: anti-tumor activity, KB (HeLa) xenograft in nude mice; type: in vivo, human; details: KB (HeLa) model, i.v. day 0 and day 7, start tumor volume 150 mm^3, log RTV, day 7-day 14
Description: as §1, §2
The KB cells indicated as a cancer cell line in Table 2 were originally thought to be derived from an epithelial cancer. […] In addition, ITS-G supplement (Wako Pure Chemical Industries, Ltd., #090-06741) was used as the ITS. […]
as §4

Hs746T stomach cancer = experiment: anti-tumor activity, Hs746T xenograft in nude mice; type: in vivo, human; details: Hs746T model, i.v. day 0 and day 7, start tumor volume 180 mm^3, log RTV, day 4-day 11
Description: as §1, §2, §3, §4

[8] = test system: MES-SA sarcoma (leiomyosarcoma); experiment: anti-tumor activity, MES-SA xenograft in nude mice; type: in vivo, human
Description: as §1, §2, §3, §4

[9] = test system: SK-LMS-1 sarcoma (leiomyosarcoma); experiment: anti-tumor activity, SK-LMS-1 xenograft in nude mice; type: in vivo, human; details: SK-LMS-1 model, i.v. day 0 and day 7, start tumor volume 290 mm^3, log RTV, day 2-day 7
Description: as §1, §2, §3, §4

[10] = test system: PLC/PRF/5 liver cancer (hepatocellular carcinoma); experiment: anti-tumor activity, PLC/PRF/5 xenograft in nude mice; type: in vivo, human; details: PLC/PRF/5 model, i.v. day 0 and day 7, start tumor volume 180 mm^3, log RTV, day 4-day 18
Description: as §1, §2, §3, §4

[11] = test system: ECC-1 uterine cancer (endometrial cancer); experiment: anti-tumor activity, ECC-1 xenograft in nude mice; type: in vivo, human; details: ECC-1 model, i.v. day 0 and day 7, start tumor volume 160 mm^3, log RTV, day 4-day 19
Description: as §1, §2, §3, §4

[12] = test system: HEC-151 uterine cancer (endometrial cancer); experiment: anti-tumor activity, HEC-151 xenograft in nude mice; type: in vivo, human; details: HEC-151 model, i.v. day 0 and day 7, start tumor volume 220 mm^3, log RTV, day 3-day 14
Description: as §1, §2, §3, §4

[13] = test system: MFE-280 uterine cancer (endometrial cancer); experiment: anti-tumor activity, MFE-280 xenograft in nude mice; type: in vivo, human; details: MFE-280 model, i.v. day 0 and day 7, start tumor volume 200 mm^3, log RTV, day 4-day 14
Description: as §1, §2, §3, §4

K1 thyroid cancer = experiment: anti-tumor activity, K1 xenograft in nude mice; type: in vivo, human; details: K1 model, i.v. day 0 and day 7, start tumor volume 390 mm^3, log RTV, day 3-day 17
Description: as §1, §2, §3, §4

C=C1C[C@@H]2CC[C@@]34C[C@H]5O[C@H]6[C@@H](O3)[C@H]3O[C@H](CC[C@@H]3O[C@H]6[C@H]5O4)CC(=O)C[C@@H]3[C@@H](OC)[C@@H](C[C@H](O)CN)O[C@H]3C[C@H]3O[C@@H](CC[C@@H]1O2)C[C@@H](C)C3=C [E7389, eribulin mesylate]
RM-ANOVA E7389 vs vehicle (BXPC-3 pancreatic cancer): Yes 1 | RM-ANOVA E7389 vs vehicle [1]: Yes 1 | RM-ANOVA E7389 vs vehicle (KP-1 pancreatic cancer): Yes 1 | RM-ANOVA E7389 vs vehicle [2]: Yes 1 | RM-ANOVA E7389 vs vehicle (AsPC-1 pancreatic cancer): Yes 1 | RM-ANOVA E7389 vs vehicle [3]: Yes 1 | RM-ANOVA E7389 vs vehicle [4]: Yes 1 | anti-tumor activity compared to the vehicle group (human xenograft models): statistically significant | RM-ANOVA E7389 vs vehicle ([5]; SK-UT-1 model (Table 2 conditions), i.v. day 0 and day 7, start tumor volume 260 mm^3, log RTV): Yes 1 | RM-ANOVA E7389 vs vehicle ([5]; SK-UT-1 model (Table 3 conditions), i.v. day 0 and day 7, start tumor volume 290 mm^3, log RTV): Yes 1 | RM-ANOVA E7389 vs vehicle ([6]; UM-UC-3 model (Table 2 conditions), i.v. day 0 and day 7, start tumor volume 230 mm^3, log RTV, day 3-day 10): Yes 1 | RM-ANOVA E7389 vs vehicle ([6]; UM-UC-3 model (Table 3 conditions), i.v. day 0 and day 7, start tumor volume 190 mm^3, log RTV, day 3-day 14): Yes 1 | RM-ANOVA E7389 vs vehicle [7]: Yes 1 | RM-ANOVA E7389 vs vehicle (Hs746T stomach cancer): Yes 1 | RM-ANOVA E7389 vs vehicle ([8]; MES-SA model (Table 2 conditions), i.v. day 0 and day 7, start tumor volume 190 mm^3, log RTV, day 4-day 18): Yes 1 | RM-ANOVA E7389 vs vehicle ([8]; MES-SA model (Table 3 conditions), i.v. day 0 and day 7, start tumor volume 420 mm^3, log RTV, day 3-day 7): Yes 1 | RM-ANOVA E7389 vs vehicle [9]: Yes 1 | RM-ANOVA E7389 vs vehicle [10]: Yes 1 | RM-ANOVA E7389 vs vehicle [11]: Yes 1 | RM-ANOVA E7389 vs vehicle [12]: Yes 1 | RM-ANOVA E7389 vs vehicle [13]: Yes 1 | RM-ANOVA E7389 vs vehicle (K1 thyroid cancer): Yes 1
